± gives the standard deviation of the averaged measurements.
Columns and labels:
Experiment in all cases: cell viability, percent of DMSO control (CellTiter-Glo); higher = more viable cells
Details in all cases: 72 h
[1] = test system: DFTD cell line T1 (06/2887)
Method: (§1)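 Eight-point dose titration of 41 screen hits in triplicate wells on four Tasmanian devil DFTD tumour cell lines (T1-T4) and devil fibroblasts, 384-well plates. Viability was read by CellTiter-Glo (ATP) after 72 h at 37 °C. Percent of control per plate: DMSO wells = 100%, positive-control wells = 0%.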

[2] = test system: DFTD cell line T3 (06/0368)
Method: as §1

[3] = test system: DFTD cell line T2 (05/2569)
Method: as §1

[4] = test system: DFTD cell line T4 (07/0192)
Method: as §1

COc1cccc2c1C(=O)c1c(O)c3c(c(O)c1C2=O)C[C@@](O)(C(=O)CO)C[C@@H]3O[C@H]1C[C@H](N)[C@H](O)[C@H](C)O1 [Doxorubicin]
cell viability [%]
Details | 0.00617 µM | 0.0185 µM | 0.0556 µM | 0.166667 µM | 0.5 µM | 1.5 µM | 4.5 µM | 13.5 µM
[1] | 109 ± 17 | 105 ± 9.2 | 104 ± 27 | 85.8 ± 21 | 61.2 ± 20 | 2.77 ± 11 | -6.73 ± 10 | -3.65 ± 10
[2] | 112 ± 9.3 | 96.6 ± 9.2 | 98.6 ± 31 | 77 ± 22 | 66.5 ± 29 | 21.6 ± 7.7 | -3.26 ± 7.7 | 4.78 ± 4.8
[3] | 108 ± 27 | 98.7 ± 8.7 | 96.5 ± 17 | 88.7 ± 16 | 64.5 ± 24 | 13.4 ± 10 | -8.33 ± 8.1 | -4.69 ± 2.8
[4] | 104 ± 17 | 106 ± 12 | 96.8 ± 8.4 | 84.9 ± 13 | 53.4 ± 22 | 2.44 ± 7 | -5.87 ± 7.7 | -5.47 ± 5.7

COc1cc2c(cc1-c1c(C)noc1C)ncc1[nH]c(=O)n([C@H](C)c3ccccn3)c12 [I-BET151]
cell viability [%]
Details | 0.0309 µM | 0.0926 µM | 0.277778 µM | 0.833333 µM | 2.5 µM | 7.5 µM | 22.5 µM | 67.5 µM
[1] | 119 ± 13 | 126 ± 40 | 92.8 ± 26 | 31.3 ± 3.5 | 28.6 ± 10 | 16.7 ± 4.4 | 23 ± 2.7 | 37.9 ± 18
[2] | 102 ± 16 | 106 ± 14 | 117 ± 38 | 64.5 ± 7.8 | 47.6 ± 12 | 35.1 ± 16 | 36.6 ± 12 | 45.2 ± 18
[3] | 95.3 ± 11 | 120 ± 21 | 141 ± 48 | 81.4 ± 24 | 50.3 ± 17 | 21.1 ± 11 | 22.3 ± 12 | 32.5 ± 18
[4] | 87.7 ± 28 | 107 ± 30 | 87.5 ± 21 | 47.8 ± 2.6 | 49.6 ± 3.5 | 38.9 ± 4.8 | 42.9 ± 4.3 | 53 ± 11

COCCn1c2c([n+](Cc3cnccn3)c1C)C(=O)c1ccccc1C2=O.[Br-] [YM155]
cell viability [%]
Details | 0.00617 µM | 0.0185 µM | 0.0556 µM | 0.166667 µM | 0.5 µM | 1.5 µM | 4.5 µM | 13.5 µM
[1] | 106 ± 18 | 104 ± 42 | 109 ± 24 | 80.8 ± 14 | 38.4 ± 4 | 6.92 ± 7.1 | 1.97 ± 6.9 | -9.67 ± 4.5
[2] | 111 ± 22 | 95.3 ± 29 | 105 ± 12 | 89.3 ± 12 | 22 ± 11 | 5.85 ± 4.9 | 4.15 ± 5.5 | -5.27 ± 4.6
[3] | 106 ± 22 | 87.2 ± 38 | 111 ± 16 | 91.9 ± 9.9 | 42.4 ± 4.4 | 4.91 ± 8 | -0.0383 ± 6.3 | -10.8 ± 3.4
[4] | 107 ± 30 | 91.5 ± 33 | 86.1 ± 17 | 32.4 ± 3.5 | 7.29 ± 8.8 | -1.02 ± 5.1 | 5.5 ± 0.64 | -4.07 ± 5.9

CC1(C)CC(=O)C2=C(C1)NC(=S)NC2c1cccc(O)c1 (configuration not stated) [Dimethylenastron]
cell viability [%]
Details | 0.00617 µM | 0.0185 µM | 0.0556 µM | 0.166667 µM | 0.5 µM | 1.5 µM | 4.5 µM | 13.5 µM
[1] | 113 ± 27 | 126 ± 9.1 | 115 ± 14 | 102 ± 7.7 | 70.9 ± 23 | 50.1 ± 16 | 42.5 ± 6.8 | 33.8 ± 5.2
[2] | 101 ± 15 | 119 ± 28 | 102 ± 10 | 110 ± 18 | 108 ± 4.1 | 94.4 ± 30 | 103 ± 12 | 86.2 ± 18
[3] | 107 ± 24 | 130 ± 26 | 117 ± 26 | 104 ± 14 | 92.3 ± 10 | 79.2 ± 25 | 73.7 ± 16 | 71.3 ± 7.8
[4] | 118 ± 20 | 92.6 ± 39 | 106 ± 18 | 105 ± 2.6 | 93.9 ± 3.2 | 81.3 ± 20 | 62.2 ± 23 | 61.7 ± 27

C=CC(=O)N1CCC(Oc2cc3c(Nc4ccc(Cl)c(Cl)c4F)ncnc3cc2OC)CC1 [Poziotinib (HM781-36B)]
cell viability [%]
Details | 0.00617 µM | 0.0185 µM | 0.0556 µM | 0.166667 µM | 0.5 µM | 1.5 µM | 4.5 µM | 13.5 µM
[1] | 56.7 ± 5.5 | 29.4 ± 11 | 24.3 ± 1.4 | 29.3 ± 5.8 | 28 ± 19 | 24.4 ± 3.6 | 26.8 ± 5.1 | 26.6 ± 9.2
[2] | 87 ± 3.7 | 52.5 ± 19 | 44 ± 6.7 | 44.6 ± 10 | 42.2 ± 18 | 30.8 ± 4.9 | 35.9 ± 7.9 | 33 ± 9.1
[3] | 87.7 ± 9.9 | 49.6 ± 13 | 41.5 ± 0.83 | 38.3 ± 5.7 | 39 ± 20 | 26.8 ± 2.8 | 22.5 ± 6 | 17 ± 10
[4] | 88.7 ± 9.5 | 44.9 ± 16 | 30.6 ± 1.8 | 26.5 ± 8.9 | 27.4 ± 18 | 27.1 ± 9.2 | 22.8 ± 8.3 | 21.4 ± 9.4

COc1cc2ncnc(Nc3cccc(Br)c3)c2cc1OC.Cl
cell viability [%]
Details | 0.00617 µM | 0.0185 µM | 0.0556 µM | 0.166667 µM | 0.5 µM | 1.5 µM | 4.5 µM | 13.5 µM
[1] | 126 ± 20 | 99 ± 21 | 112 ± 21 | 111 ± 19 | 63 ± 27 | 24.8 ± 4.3 | 22.8 ± 4.8 | 12.4 ± 4
[2] | 127 ± 22 | 90.2 ± 19 | 118 ± 9.9 | 108 ± 7.1 | 89.1 ± 20 | 49 ± 2.4 | 39.8 ± 1.5 | 30.8 ± 7.7
[3] | 115 ± 13 | 106 ± 32 | 106 ± 25 | 107 ± 11 | 77 ± 26 | 40.7 ± 2.4 | 32.9 ± 7.8 | 21.2 ± 5.5
[4] | 126 ± 14 | 94 ± 30 | 105 ± 1.4 | 104 ± 9.2 | 91 ± 33 | 48.8 ± 3.7 | 28.6 ± 4.1 | 17.7 ± 5.7

CCN1CCN(Cc2ccc(-c3cc4c(N[C@H](C)c5ccccc5)ncnc4[nH]3)cc2)CC1 [AEE788]
cell viability [%]
Details | 0.00617 µM | 0.0185 µM | 0.0556 µM | 0.166667 µM | 0.5 µM | 1.5 µM | 4.5 µM | 13.5 µM
[1] | 77.9 ± 22 | 87.5 ± 17 | 119 ± 44 | 61.2 ± 11 | 35.4 ± 11 | 23.9 ± 7.3 | 29.4 ± 13 | 17.5 ± 3.5
[2] | 93.5 ± 15 | 110 ± 21 | 123 ± 27 | 77.2 ± 11 | 49.8 ± 13 | 34.2 ± 11 | 36.4 ± 13 | 28.6 ± 4.9
[3] | 77.9 ± 14 | 96 ± 16 | 123 ± 38 | 85.2 ± 15 | 46.3 ± 12 | 25.8 ± 7.8 | 21 ± 7 | 6.37 ± 3.9
[4] | 99.1 ± 11 | 90 ± 14 | 104 ± 35 | 83.8 ± 10 | 43.4 ± 4.7 | 25.1 ± 11 | 24.8 ± 12 | 23.4 ± 5.6

COc1cc2ncnc(Nc3cccc(Cl)c3)c2cc1OC [AG-1478]
cell viability [%]
Details | 0.00617 µM | 0.0185 µM | 0.0556 µM | 0.166667 µM | 0.5 µM | 1.5 µM | 4.5 µM | 13.5 µM
[1] | 117 ± 7.2 | 115 ± 7.9 | 106 ± 36 | 109 ± 19 | 54.7 ± 7.8 | 39.2 ± 9.1 | 32.7 ± 11 | 28.9 ± 9.3
[2] | 125 ± 31 | 105 ± 3.8 | 103 ± 18 | 117 ± 16 | 83.2 ± 17 | 63.5 ± 11 | 53.2 ± 13 | 46.9 ± 9.5
[3] | 99.4 ± 20 | 105 ± 21 | 108 ± 13 | 114 ± 12 | 81 ± 12 | 49.2 ± 11 | 40.2 ± 16 | 34 ± 5.2
[4] | 119 ± 21 | 110 ± 20 | 104 ± 24 | 128 ± 18 | 89.3 ± 22 | 68.1 ± 18 | 38 ± 7 | 32.3 ± 11

CS(=O)(=O)CCNCc1ccc(-c2ccc3ncnc(Nc4ccc(OCc5cccc(F)c5)c(Cl)c4)c3c2)o1.Cc1ccc(S(=O)(=O)O)cc1.Cc1ccc(S(=O)(=O)O)cc1.O [Lapatinib ditosylate monohydrate]
cell viability [%]
Details | 0.00617 µM | 0.0185 µM | 0.0556 µM | 0.166667 µM | 0.5 µM | 1.5 µM | 4.5 µM | 13.5 µM
[1] | 107 ± 39 | 96.9 ± 20 | 92.2 ± 12 | 59.3 ± 6.9 | 38.8 ± 14 | 27.7 ± 9.2 | 31.9 ± 9.8 | 17.9 ± 3.7
[2] | 104 ± 10 | 94.6 ± 39 | 92.3 ± 27 | 85.4 ± 8.8 | 69.8 ± 7.8 | 38.4 ± 1.4 | 48.1 ± 12 | 34 ± 7
[3] | 100 ± 26 | 88.5 ± 31 | 87.2 ± 27 | 74.9 ± 4.3 | 58.2 ± 13 | 41.5 ± 5 | 40.8 ± 9.6 | 24.9 ± 5.9
[4] | 98.9 ± 6.5 | 94 ± 37 | 94.6 ± 12 | 68.7 ± 6.8 | 60.1 ± 8.2 | 29.7 ± 3.2 | 38.5 ± 8.5 | 24.5 ± 5.5

O=c1c(=NNc2nnn[nH]2)c(=O)c2ccccc12
cell viability [%]
Details | 0.00617 µM | 0.0185 µM | 0.0556 µM | 0.166667 µM | 0.5 µM | 1.5 µM | 4.5 µM | 13.5 µM
[1] | 111 ± 30 | 134 ± 16 | 108 ± 24 | 109 ± 13 | 100 ± 8.9 | 6.85 ± 14 | -3.59 ± 8.9 | -9.34 ± 11
[2] | 123 ± 33 | 108 ± 57 | 105 ± 18 | 110 ± 22 | 99.8 ± 8.1 | -0.871 ± 9.3 | -0.369 ± 11 | -6.58 ± 12
[3] | 114 ± 14 | 133 ± 22 | 102 ± 25 | 96.4 ± 15 | 89.2 ± 11 | 1.91 ± 9.7 | -2.74 ± 7.9 | -6.89 ± 10
[4] | 112 ± 34 | 109 ± 63 | 107 ± 15 | 113 ± 5.9 | 99.9 ± 11 | -4.87 ± 8 | -0.683 ± 8.2 | -9.39 ± 10

Nc1ccc(F)cc1NC(=O)c1ccc(CNC(=O)/C=C/c2cccnc2)cc1 [Chidamide]
cell viability [%]
Details | 0.0309 µM | 0.0926 µM | 0.277778 µM | 0.833333 µM | 2.5 µM | 7.5 µM | 22.5 µM | 67.5 µM
[1] | 111 ± 10 | 97.4 ± 13 | 38.5 ± 12 | 28.7 ± 7 | 9.38 ± 5.5 | -0.502 ± 7.4 | 13.2 ± 7.4 | 18.1 ± 14
[2] | 102 ± 16 | 78.9 ± 11 | 56.3 ± 11 | 39 ± 4 | 18.9 ± 11 | 18.2 ± 10 | 14.3 ± 17 | 11.1 ± 4.7
[3] | 102 ± 30 | 79.7 ± 10 | 69.8 ± 22 | 29.6 ± 7.4 | 11.9 ± 11 | 9.75 ± 5.5 | 7.82 ± 16 | 9.23 ± 3.7
[4] | 112 ± 11 | 101 ± 8 | 83 ± 17 | 48.5 ± 5.6 | 22.2 ± 5.1 | 19.1 ± 8.8 | 15.3 ± 4.3 | 20.2 ± 3
